{
  "source": "patent US4336243A",
  "about": "“Transdermal nitroglycerin pad” (G. D. Searle & Co., priority 1981, dated 1982)",
  "key": {"[1]": {"test": "Percutaneous absorption of C^14 nitroglycerin, neat liquid application (urinary radioactivity)", "type": "in vivo, rhesus monkey (Macaca mulata)", "settings": "for Percent Dose Absorbed (Mean + SEM): neat liquid", "description": "Studies to determine the topical availability of nitroglycerin were carried out in vivo with the rhesus monkey (Macaca mulata).\nThe animals were placed in metabolism chairs for the length of time of the dose application. Urine was collected while the animals were still in the metabolism chairs. After the dose was removed, the animals were moved to a metabolism cage for continued urine collection.\nNitroglycerin, labeled with carbon-14, was applied to the skin. The site of application can be any part of the body; however, the ventral forearm or upper part of the inner arm was used for convenience. The area of application is generally small, i.e., 2-10 cm^2; however, any area can be used. The final concentration is expressed as an amount per unit area of skin (i.e. 1.0 mg/1 cm^2).\nIn the case of liquid, cream or ointment formulations, the dose was spread over the exact skin area. In the case of the pads of the present invention, they were taped to the skin. In the case of liquids, cream or ointments, the treated area was covered with aluminum foil and tape. In all cases, the tape and foil and where applicable the nitroglycerin pads were removed after 24 hours and the site of application was wiped three times with gauze soaked with ethanol, then washed with soap and water.\nAbsorption is quantified on the basis of the percent of radioactivity excreted in urine for 3 days following application of a known amount of the labeled nitroglycerin to the skin. Daily urinary excretion values are collected for excretion of radioactivity by other routes and retention of radioactivity in the body by the administration of an intravenous dose of C^14 -labeled nitroglycerin according to the following formula: [formula]\nIn the case of C^14 -labeled nitroglycerin applied via the nitroglycerin pad of the present invention, the device can be removed from the skin and analyzed for residual radioactivity. The amount of radioactivity which has been removed from the device, by comparative assays with devices not applid to skin, is considered to have been released in vivo during the time of skin application. Analysis for radioactivity can be conducted using any commercially available liquid scintillation counter. To determine the amount of radioactivity in this study, 1.0 ml of radioactive urine was mixed with scintillation fluid (10 ml of PCS solubilizer, Amersham Corporation, Arlington Heights, Ill.). The urine mixed with scintillant is counted for radioactivity in a liquid scintillation counter and the amount of radioactivity determined."}, "[2]": {"test": "Effect of added hydrophobic solvents on nitroglycerin transport and delivery", "settings": "miglyol oil 812 and isopropyl palmitate alone, or with mineral oil, added to the hydrophilic solvent system in the polymer matrix"}},
  "data": [
    {"compound": "O=[N+]([O-])OCC(CO[N+](=O)[O-])O[N+](=O)[O-]", "note": "[C^14 Nitroglycerin, nitroglycerin]", "values": [
      {"measurement": "Percent Dose Absorbed (Mean + SEM)", "setting": "[1]; topical concentration 0.01 mg/cm^2, 24 hours", "result": "41.8 ± 3.2", "unit": "%"},
      {"measurement": "Percent Dose Absorbed (Mean + SEM)", "setting": "[1]; topical concentration 0.1 mg/cm^2, 24 hours", "result": "43.5 ± 3.3", "unit": "%"},
      {"measurement": "Percent Dose Absorbed (Mean + SEM)", "setting": "[1]; topical concentration 1.0 mg/cm^2, 24 hours", "result": "36.6 ± 3.7", "unit": "%"},
      {"measurement": "Percent Dose Absorbed (Mean + SEM)", "setting": "[1]; topical concentration 7.0 mg/cm^2, 24 hours", "result": "22.6 ± 4.2", "unit": "%"},
      {"measurement": "Percent Dose Absorbed (Mean + SEM)", "setting": "[1]; topical concentration 10.0 mg/cm^2, 24 hours", "result": "7.8 ± 0.7", "unit": "%"},
      {"measurement": "absorption", "setting": "[1]; topical concentrations of 7 and 10 mg/cm^2", "result": "decreased absorption"},
      {"measurement": "maximum optimum dosage for good bioavailability", "setting": "[1]; topical, neat nitroglycerin", "result": 5, "unit": "mg/cm^2"},
      {"measurement": "drug delivery", "setting": "[2]", "result": "increased"},
      {"measurement": "drug transport", "setting": "[2]", "result": "greatly enhanced"}
    ]}
  ]
}
